Reference: patent US12187672B2, “1,2-diacylglycerol compound, preparation method therefor, and immunomodulator containing same as active ingredient” (ENZYCHEM LIFESCIENCES CORPORATION, priority 2018, dated 2025)

Key:
STAT3 [1] = assay: STAT3 activity, pGL4.47 SIE luciferase reporter in LPS-treated RAW264.7 cells; assay type: cell-based, mouse; settings: sample 100 μg/ml 1 h, then LPS 1 μg/ml 18 h
Method: pGL4.47 [luc2P/SIE/Hygro] vector containing the sis-Inducible Element that binds to STAT3 was injected into RAW264.7 cells to confirm the degree of STAT3 activity. In DMEM (Hyclone, Thermo Scientific) medium to which 10% Fetal Bovine Serum was added, RAW264.7 cells were cultured at a concentration of 1×10^5 cells/ml, and maintained in a 5% CO2 humidified incubator at 37° C. The cultured RAW264.7 cells were inoculated into a 48 well plate by 1×10^5 cells/ml and stabilized for 18 hours. Thereafter, the pGL4.47 [luc2P/SIE/Hygro] vector containing sis-Inducible Element was mixed with Attractene to induce complex formation at room temperature for 15 minutes. This complex was treated with the cells and then further incubated for 18 hours. Thereafter, the culture solution was treated with a glycerol derivative compounds of the type shown in Table 5 below for 1 hour and then LPS (1 μg/ml) was treated and further incubated for 18 hours for STAT3 activity. Thereafter, the culture supernatant was removed for each well, and the remaining cells were lysed with a cell lysis buffer, and then cell lysate was recovered. 90 μl of luciferase reagent was mixed with 10 μl of the recovered cell lysate, and the degree of fluorescence was confirmed using a luminometer.

IL-4 = assay: PKC activator-induced IL-4 secretion reduction in EL-4 cells (ELISA); assay type: cell-based, mouse; settings: sample 100 μg/ml 2 h, then PKC activator 18 h, Table 12
Method: In DMEM (Dulbecco Modified Eagle Medium, Hyclone, Thermo Scientific) medium to which 10% Fetal Bovine Serum was added, EL-4 cells, a mouse lymphoma family, were subcultured at a concentration of 1×10^5 cells/ml, and culture was conducted in a 5% CO2 humidified incubator at 37° C. The cultured EL-4 cells were inoculated into a 48 well plate by 5×10^4 cells/ml and stabilized for 30 hours. Then, the culture solution was treated with a glycerol derivative compounds of the type shown in Table 11 and 12 below for 2 hours. Thereafter, it were treated with 0.5 μg/ml of PKC activator (p10, some kind of PMA) of a cell stimulator, and subsequent further incubation were conducted for 18 hours. Thereafter 0.5 ml of the culture supernatant was collected for each well and centrifuged (at 3000 rpm, 5 minutes) to recover the supernatant. The IL-4 level in the recovered supernatant was measured according to the manual provided by the Mouse IL-4 ELISA set (BD Biosciences). The day before ELISA was carried out, the IL-4 capture antibody was diluted in phosphate buffered saline, coated on a microwell, and then stored at 4° C. overnight. Each well was washed three times with a buffer solution and then blocked with 2% Bovine Serum Albumin (BSA) for 1 hour at room temperature. After washing with buffer solution three times, 100 μl of sample was dispensed into each well and left at room temperature for 2 hours. Detection antibody which was washed 3 times with washing buffer solution and diluted was dispensed into each well and allowed to react at room temperature for 1 hour and left at room temperature for 1 hour. Thereafter, the secondary HRP conjugated antibody was reacted at room temperature for 30 minutes, washed three times with buffer solution, and treated with 50 μl of stop solution for each well, and then the optical density was measured at 450 nm with an ELISA microplate leader. The results of the measured expression reduction rate ([…]) were shown in Table 11, Table 12, FIG. 11 and FIG. 12 below.

HL-60 cells = assay: Migration of HL-60 cell line toward THP-1 culture supernatant (transmigration assay); assay type: cell-based, human
Method: In RPMI (Hyclone, Thermo Scientific) medium to which 10% Fetal Bovine Serum was added, THP-1 cells, a human macrophage family, were subcultured at a concentration of 1×10^5 cells/ml, and culture was conducted in a 5% CO2 humidified incubator at 37° C. In order to prepare the THP-1 cell culture solution to be treated in the lower well during the transmigration assay, first, the cultured THP-1 cells were inoculated into a 12 well plate by 1×10^6 cells/ml and stabilized for 30 minutes. Then, the culture solution was treated with a glycerol derivative compounds of the type shown in Table 7 below for 1 hour and then was treated with Gemcitabine (2 μg/ml) of a cell stimulator, and subsequent further incubation was conducted for 24 hours. Thereafter 1.5 ml of the culture supernatant was collected for each well and centrifuged (at 3000 rpm, 5 minutes) to recover the supernatant. The CXCL8 (IL-8) level in the recovered supernatant was measured according to the manual provided by Cultrex 96 well Laminin Cell Invasion assay. The day before Transmigration assay was carried out, a 1× Lamin I solution was treated in the upper Invasion Chamber and coated. Thereafter, in RPMI (Hyclone, Thermo Scientific) medium to which 10% Fetal Bovine Serum was added, the cultured HL-60 cells were despensed of 5×10^4 cells/chamber, and 150 μl of the THP-1 culture supernatant prepared in advance was added to the lower chamber. Thereafter the upper chamber was removed, and the cells were attached to the bottom of the lower chamber by a centrifuge, and then the supernatant was removed. Cell dissociation/Calcein-AM solution was added and reacted for 1 hour. Then, the value obtained using a fluorescence spectroscopy was calculated by converting the number of cells.

IL-6 = assay: LPS-induced IL-6 secretion reduction in RAW264.7 cells (ELISA); assay type: cell-based, mouse; settings: sample 100 μg/ml 1 h, then LPS 1 μg/ml 24 h, Table 3
Method: In DMEM (Dulbecco Modified Eagle Medium, Hyclone, Thermo Scientific) medium to which 10% Fetal Bovine Serum was added, RAW264.7 cells, a mouse macrophage family, were suspended at a concentration of 1×10^5 cells/ml, and culture was conducted in a 5% CO2 humidified incubator at 37° C. The cultured RAW264.7 cells were inoculated into a 48 well plate by 5×10^4 cells/ml and stabilized for 15 hours. Then, the culture solution was treated with a glycerol derivative compounds of the type shown in Table 2 and 3 below for 1 hour and then was treated with 1 μg/ml of Lipopolysaccaride (LPS) of a cell stimulator, and subsequent further incubation was conducted for 24 hours. Thereafter 0.5 ml of the culture supernatant was collected for each well and centrifuged (at 3000 rpm, 5 minutes) to recover the supernatant. The IL-6 level in the recovered supernatant was measured according to the manual provided by the Mouse IL-6 ELISA set (BD Biosciences). The day before ELISA was carried out, the IL-6 capture antibody was diluted in phosphate buffered saline, coated on a microwell, and then stored at 4° C. overnight. Each well was washed three times with a buffer solution and then blocked with 2% Bovine Serum Albumin (BSA) for 1 hour at room temperature. After washing with buffer solution three times, […] of sample was dispensed into each well and left at room temperature for 2 hours. Detection antibody which was washed 3 times with washing buffer solution and diluted was dispensed into each well and allowed to react at room temperature for 1 hour and left at room temperature for 1 hour. Thereafter, the secondary HRP conjugated antibody was reacted at room temperature for 30 minutes, washed three times with a buffer solution, and treated with 50 μl of stop solution for each well, and then the optical density was measured at 450 nm with an ELISA microplate leader. The results of the IL-6 expression reduction rate (IL-6 concentration) are shown in Table 2, Table 3, FIG. 1 and FIG. 2 below.

CXCL8 (IL-8) = CXCL8 (IL-8) expression reduction in Gemcitabine-treated THP-1 cells (ELISA); assay type: cell-based, human; settings: for CXCL8 [IL-8] concentration (average ± deviation): THP-1 cells
Method: In RPMI (Hyclone, Thermo Scientific) medium to which 10% Fetal Bovine Serum was added, THP-1 cells, a human macrophage family, were suspended at a concentration of 1×10^5 cells/ml, and culture was conducted in a 5% CO2 humidified incubator at 37° C. The cultured THP-1 cells were inoculated into a 12 well plate by 1×10^6 cells/ml and stabilized for 30 minutes. Then, the culture solution was treated with a glycerol derivative compounds of the type shown in Table 6 below for 1 hour and then was treated with Gemcitabine (2 μg/ml) of a cell stimulator, and subsequent further incubation was conducted for 24 hours. Thereafter 1.5 ml of the culture supernatant was collected for each well and centrifuged (at 3000 rpm, 5 minutes) to recover the supernatant. The CXCL8 (IL-8) level in the recovered supernatant was measured according to the manual provided by the human IL-8 ELISA set (BD Biosciences). The day before ELISA was carried out, the IL-8 capture antibody was diluted in phosphate buffered saline, coated on a microwell, and then stored at 4° C. overnight. Each well was washed three times with a buffer solution and then blocked with 2% Bovine Serum Albumin (BSA) for 1 hour at room temperature. After washing with washing buffer solution three times, 100 μl of sample was dispensed into each well and left at room temperature for 2 hours. Detection antibody which was washed 3 times with washing buffer and diluted was dispensed into each well and allowed to react at room temperature for 1 hour and left at room temperature for 1 hour. Thereafter, the secondary HRP conjugated antibody was reacted at room temperature for 30 minutes, washed three times with a washing buffer, and treated with 50 μl of stop solution for each well, and then the optical density was measured at 450 nm with an ELISA microplate leader.

STAT6 = assay: IL-4-induced STAT6 activity, pGL4-STAT6 luciferase reporter in A549 cells; assay type: cell-based
Method: In DMEM (Dulbecco Modified Eagle Medium, Hyclone, Thermo Scientific) medium to which 10% Fetal Bovine Serum was added, A549 cells were subcultured at a concentration of 1×10^5 cells/ml, and culture was conducted in a 5% CO2 humidified incubator at 37° C. The cultured A549 cells were inoculated into a 48 well plate by 1×10^5 cells/ml and stabilized for 18 hours. Thereafter, pGL4-STAT6 reporter vector containing a STAT6 binding promoter portion was mixed with Attractene to induce complex formation at room temperature for 15 minutes. This complex was treated with the cells and then further incubated for 24 hours. Thereafter, the culture solution was treated with a glycerol derivative compounds of the type shown in Table 9 and 10 below for 1 hour, and then IL-4 (2 ng/ml or 10 ng/ml) was further incubated for 20 hours for STAT6 activity. Thereafter, the culture supernatant was removed for each well, and the remaining cells were lysed with a cell lysis buffer, and then cell lysate was recovered. 90 μl of luciferase reagent was mixed with 10 μl of the recovered cell lysate, and the degree of fluorescence was confirmed using a luminometer. The results are shown in Table 9, Table 10, FIG. 9 and FIG. 10 below.

STAT3 [2] = assay: IL-6-induced STAT3 activity, SEAP expression in HEK-Blue IL-6 cells; assay type: cell-based
Method: HEK-Blue™ IL-6 cells were used to confirm STAT3 activity by STAT3-induced SEAP (secreted embryonic alkaline phosphatase) expression. In DMEM (Hyclone, Thermo Scientific) medium to which 10% Fetal Bovine Serum was added, HEK-Blue™ IL-6 cells were cultured at a concentration of 1×10^5 cells/ml, and maintained in a 5% CO2 humidified incubator at 37° C. The cultured HEK-Blue™ IL-6 cells were inoculated by 1×10^5 cells/ml. Then, the culture solution was treated with a glycerol derivative compounds of the type shown in Table 4 below for 1 hour and then IL-6 (5 ng/ml) was further incubated for 24 hours for STAT3 activity. Thereafter, the culture supernatant was collected for each well and centrifuged (at 3000 rpm, 5 minutes) to recover the supernatant. The SEAP expression level in the recovered supernatant was mixed with Quanti blue reagent and the supernatant at a ratio of 1:10 and left at 37° C. for about 30 minutes. Then, the SEAP concentration was confirmed at 650 nm wavelength using a spectrophotometer, and the results (STAT3 activity inhibitory ability) thereof are shown in Table 4 and FIG. 3 below.

[3] = sample 100 μg/ml 1 h, then IL-4 (10 ng/ml) 20 h, Table 10
[4] = THP-1 cells treated with Gemcitabine

Molecule	STAT3 activity_Luciferase activity (average ± deviation) (STAT3 [1])	IL-4 concentration (average ± deviation) (IL-4)	IL-6 concentration (average ± deviation) (IL-6)	STAT6 activity_Luciferase activity (average ± deviation) (STAT6; [3])	further results
CCCCC/C=C\C/C=C\CCCCCCCC(=O)OC(COC(=O)CCCCCCCC)COC(=O)CCCCCCCCCCCCCCC (stereo not drawn) [EC_A84]	780 ± 27.5	615.6 ± 25.0 pg/µL	0.799 ± 0.025 pg/µL		Number of HL-60 cells migrated through Transwell (HL-60 cells; supernatant of THP-1 cells treated with sample 100 μg/ml 1 h, then Gemcitabine 2 μg/ml 24 h): 2197.8 Cell Number; CXCL8 [IL-8] concentration (average ± deviation) (CXCL8 (IL-8); sample 100 μg/ml 1 h, then Gemcitabine 2 μg/ml 24 h): 110.5 ± 6.8 pg/µL
CCCCC/C=C\C/C=C\CCCCCCCC(=O)OC(COC(=O)CCCCCCCCCCC)COC(=O)C(C)C (stereo not drawn) [EC_A94]	640 ± 275.7	523.8 ± 62.3 pg/µL	0.702 ± 0.079 pg/µL	14677.5 ± 2168.7	
CCCCC/C=C\C/C=C\CCCCCCCC(=O)OC(COC(=O)CCCCCCCCCCC)COC(=O)C(C)(C)C (stereo not drawn) [EC_A95]	663 ± 61.5	680.1 ± 12.2 pg/µL	0.777 ± 0.020 pg/µL	13649.0 ± 7369.3	
Nc1ccn([C@@H]2O[C@H](CO)[C@@H](O)C2(F)F)c(=O)n1 [Gemcitabine, reference compound]					increase of neutrophil cell migration compared to the negative control group (HL-60 cells; [4]): about twice; Number of HL-60 cells migrated through Transwell (HL-60 cells; supernatant of THP-1 cells treated with Gemcitabine 2 μg/ml alone): 5022.9 Cell Number; increase of CXCL8 (IL-8) secretion compared to the negative control group (CXCL8 (IL-8); [4]): about 13 times; CXCL8 [IL-8] concentration (average ± deviation) (CXCL8 (IL-8); Gemcitabine 2 μg/ml alone): 104.6 ± 1.5 pg/µL
IL-6: IL-6 cytokine used to induce STAT3 activity [reference compound]					increase of STAT3 activity compared to the negative control group (STAT3 [2]; HEK-Blue IL-6 cells treated with IL-6): about 2.3 times; STAT3 activity_SEAP expression(%) (average ± deviation) (STAT3 [2]; HEK-Blue IL-6 cells, IL-6 5 ng/ml alone, negative control = 100): 228.8 ± 17.0%
IL-4: IL-4 used to induce STAT6 activity in A549 cells (protein, UniProt P05112 25-153, looked up) Interleukin-4: HKCDITLQEIIKTLNSLTEQKTLCTELTVTDIFAASKNTTEKETFCRAATVLRQFYSHHEKDTRCLGATAQQFHRHKQLIRFLKRLDRNLWGLAGLNSCPVKEANQSTLENFLERLKTIMREKYSKCSS					STAT6 activity_Luciferase activity (average ± deviation) (STAT6; IL-4 alone, concentration printed 2 (head μg/ml; method 2 ng/ml), Table 9): 982.0 ± 38.7; STAT6 activity_Luciferase activity (average ± deviation) (STAT6; IL-4 alone, concentration printed 10 (head μg/ml; method 10 ng/ml), Table 10): 22846.2 ± 2157.3
